Test system: mice
Test: In vivo delivery of FLuc-circ-RNA lipid nanoparticles in mice (IVIS imaging)
Conditions: for IVIS: FLuc-circRNA LNP, IV; for delivery efficiencies on change from mRNA to circular RNA: statement on Table 3, circular RNA LNP vs mRNA LNP
Method: 8.2 Investigation of the Delivery Efficacy of Nucleic Acid Lipid Nanoparticles for FLuc-Circ-mRNA in Mice
Lipid nanoparticles loaded with nucleic acid drugs were prepared according to step 2, replacing FLuc-mRNA with FLuc-circ-RNA (Shanghai Zhiwei Technology Development Co., Ltd.). After formulation, the nanoparticles were administered via intramuscular injection (into the quadriceps femoris muscle of mice), intravenous injection (into the tail vein of mice), intraperitoneal injection, or subcutaneous injection (subcutaneously on the back). Approximately 75 μL was injected per mouse, with a total of 3 mice per group. In vivo imaging (PerkinElmer, IVIS Lumina III) was performed after a certain period of time. Ten to fifteen minutes before imaging, 200 μL of a 15 mg/mL D-Luciferin working solution was injected intraperitoneally, followed by imaging analysis using the in vivo imaging system.

SMILES | IVIS (organ liver) | IVIS (organ lung) | IVIS (organ spleen) | delivery efficiencies on change from mRNA to circular RNA
CCCCCCOC(C)OCCCCCCOC(=O)C(O)CN(CCO)CCCN(CC(O)C(=O)OCCCCCCOC(C)OCCCCCC)CC(O)C(=O)OCCCCCCOC(C)OCCCCCC (stereo not shown) [Compound L0692] | 3.34E+06 | 8.55E+04 | 2.64E+06 | further increased the delivery efficiencies
CCCCCCC(CCCCCC)C(=O)OCCCCCCNC(=O)C(O)CN(CCO)CCCN(CC(O)C(=O)NCCCCCCOC(=O)C(CCCCCC)CCCCCC)CC(O)C(=O)NCCCCCCOC(=O)C(CCCCCC)CCCCCC (stereo not shown) [Compound L0710] | 3.07E+08 | 4.78E+06 | 9.97E+07 | further increased the delivery efficiencies
CCCCCCC(CCCCCC)C(=O)NCCOC(=O)C(O)CN(CCO)CCCN(CC(O)C(=O)OCCNC(=O)C(CCCCCC)CCCCCC)CC(O)C(=O)OCCNC(=O)C(CCCCCC)CCCCCC (stereo not shown) [Compound L0711] |  |  |  | further increased the delivery efficiencies
CCCCCCCCC(CCCCCC)C(=O)NCCOC(=O)C(O)CN(CCO)CCCN(CC(O)C(=O)OCCNC(=O)C(CCCCCC)CCCCCCCC)CC(O)C(=O)OCCNC(=O)C(CCCCCC)CCCCCCCC (stereo not shown) [Compound L0714] |  |  |  | further increased the delivery efficiencies
